# Test results reported in patent publication US8759387B2, “Arylalkylamine compound and process for preparing the same” (Mitsubishi Tanabe Pharma Corporation, priority 2004, dated 2014).
# Counter-ions that a name gives are not always drawn.
# How the values were obtained:
# rat parathyroid cells = assay: Suppressing effect on PTH production, in vitro test using rat parathyroid cells (PTH (1-84) ELISA); type: cell-based; settings: primary cultured rat parathyroid cells, 1.15 mM Ca, 22 to 24 hours culture
# Text: In Vitro Test Using Rat Parathyroid Cells
# By using primary cultured cells prepared from the parathyroid in rats, suppressing effect on PTH production was examined according to the following in vitro test.
# (1) Preparation and Culture of Rat Parathyroid Cells:
# Thirty-six 10-weeks old male CD (SD) IGS rats (Crj series, grade: SPF, CHARLES RIVER LABORATORIES JAPAN, INC.) were euthanasically sacrificed under ether anesthesia, the thyroid gland together with the parathyroid glands were cut out under sterilized conditions, and preserved in ITS-containing DMEM/F-12 medium (low Ca). The parathyroid glands were separated from the obtained material under observation by stereoscopic microscope, and collected in the same medium. Next, the medium was discarded, the parathyroid glands were washed with a phosphate buffer solution (PBS(−)) containing no calcium and magnesium ions, 5 ml of a collagenase solution [PBS(−) containing 1.5 mg/ml of collagenase type IV (Gibco Co., catalogue No. 17104-019)] was added, and digested at 37° C. for 1 hour with shaking. After digestion, the enzyme solution was discarded, the parathyroid glands were quickly minced with a scalpel in a laboratory dish, and were collected in 7 ml of a collagenase solution, and digested again at 37° C. for 90 minutes with shaking.
# Cell debris was removed using cell strainer, the residue was removed, and then, the cells were collected. They were washed twice with an ITS-containing DMEM/F-12 medium (low Ca) containing 5% FCS, and suspended in the same medium. The parathyroid cells were suspended at the concentration of about 5×10^4 cells/ml, and were seeded to 96-well plate (200 μl/well), and cultured (pre-culture) at 37° C. for about 24 hours in a CO2 incubator.
# The ITS-containing DMEM/F-12 medium (low Ca) to be used mentioned above was prepared as follows. Ca-free DMEM (Dulbecco's modified Eagle's medium) (Gibco Co., catalogue No. 21068-028)(500 ml), F-12 (F-12 nutrient mixture; Gibco Co., catalogue No. 11765-054)(500 ml) and 10 ml of ITS (a mixture containing 5 μg/ml of insulin, 5 μg/ml of transferrin and 5 ng/ml of selenium) (ITS+Premix; BD Biosciences Co., catalogue No. 35435) were mixed. To the mixture was dissolved 3.5745 g of HEPES (NACALAI TESQUE Co., catalogue No. 17547-95), and 10 ml of 200 mM L-glutamine (Gibco Co., catalogue No. 25030-081) and 1 ml of Penicillin-Streptomycin solution (100×Penicillin-Streptomycin, liquid; Gibco Co., catalogue No. 15140-122) were added, and the resulting mixture was sterilized by filtration, and then, used. Ca concentration in the medium is about 0.15 mM.
# (2) Test of Suppressing Effect on PTH Production
# Rat parathyroid cells were pre-cultured as mentioned in the above (1), then, the medium was changed, and the cells were cultured for 22 to 24 hours in a medium to which a test compound and CaCl2 had been added (96-well plate, 200 μl/well). Various concentrations of the test compound and CaCl2 were added to a serum-free ITS-containing DMEM/F-12 medium (low Ca), and the resulting medium was used. When the test compound is to be added, CaCl2 was added so that the Ca concentration became 1.15 mM. […]
# PTH (1-84) in the above-mentioned culture supernatant was measured by the ELISA Method, and determined as a PTH production value. […]
# Based on the measured value (PTH production value), of the test compounds, the inhibition rate in PTH production was calculated. […]
# human CaSR = biological target: T1, human CaSR (Homo sapiens, UniProt P41180); assay: CaSR activating effect, in vitro test using CaSR expressing cells (intracellular calcium, Fura-2/FDSS); type: cell-based; settings: CHO cells stably expressing human CaSR and Gα16; change in intracellular calcium concentration
# T1 construct: the full length cDNA encoding CaSR was obtained first as three divisional parts; expressed in transfected cells
# T1 sequence (P41180 20-1078): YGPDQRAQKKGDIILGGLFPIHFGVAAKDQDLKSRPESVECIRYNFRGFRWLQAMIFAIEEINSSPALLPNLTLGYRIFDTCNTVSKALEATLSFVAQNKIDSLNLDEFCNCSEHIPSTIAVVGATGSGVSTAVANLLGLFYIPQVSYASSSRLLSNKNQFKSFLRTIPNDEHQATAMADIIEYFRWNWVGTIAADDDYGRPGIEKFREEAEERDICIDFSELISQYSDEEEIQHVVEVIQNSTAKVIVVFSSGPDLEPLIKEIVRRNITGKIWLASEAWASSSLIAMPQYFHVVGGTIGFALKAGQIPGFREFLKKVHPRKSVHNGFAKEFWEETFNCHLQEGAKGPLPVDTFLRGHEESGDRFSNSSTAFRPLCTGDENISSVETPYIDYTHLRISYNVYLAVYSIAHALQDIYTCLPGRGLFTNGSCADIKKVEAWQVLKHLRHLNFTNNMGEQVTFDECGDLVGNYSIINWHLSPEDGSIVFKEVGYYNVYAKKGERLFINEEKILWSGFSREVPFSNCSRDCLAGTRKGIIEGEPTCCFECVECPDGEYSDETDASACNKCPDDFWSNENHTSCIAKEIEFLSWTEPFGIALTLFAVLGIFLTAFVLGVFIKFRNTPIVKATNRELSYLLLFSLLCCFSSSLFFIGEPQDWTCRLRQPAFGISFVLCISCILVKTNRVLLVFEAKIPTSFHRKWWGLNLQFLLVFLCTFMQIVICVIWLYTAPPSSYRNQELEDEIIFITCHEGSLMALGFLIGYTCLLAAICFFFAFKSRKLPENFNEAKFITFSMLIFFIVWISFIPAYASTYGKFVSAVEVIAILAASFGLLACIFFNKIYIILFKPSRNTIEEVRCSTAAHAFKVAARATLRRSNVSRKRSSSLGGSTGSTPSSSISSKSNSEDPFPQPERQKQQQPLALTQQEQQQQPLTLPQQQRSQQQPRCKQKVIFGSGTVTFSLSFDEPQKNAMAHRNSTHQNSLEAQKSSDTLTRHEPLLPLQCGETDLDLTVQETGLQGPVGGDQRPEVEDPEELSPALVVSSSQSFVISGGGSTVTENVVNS
# Text: In vitro test using CaSR expressing cells
# CaSR is a member of G protein-coupled receptor (GPCR). When CaSR of cells are activated by stimulating with extracellular Ca^2+ ion or an agonist (a compound having CaSR activating effect), etc., phospholipase C(PLC) is activated through G protein (Gq), and an intracellular calcium concentration is increased.
# Thus, an activating effect on CaSR was examined by using CaSR expressing cell line and referring to change in an intracellular calcium concentration as an index. Preparation of cell strains and a test using the same are, more specifically, carried out as mentioned in the following (1) and (2).
# (1) Acquisition of Human CaSR Expressing Cell Line
# cDNA fragment encoding human CaSR was obtained from human kidney derived cDNA library by PCR.
# [Primer to be Used for PCR was Designed Based on Known Nucleic Acid Sequence Information on Human CaSR (GenBank/EMBL Accession No. D50855; GenBank/EMBL Accession No. NM000388;
# • Aida et al., Biochem. Biophys. Res. Commun., 214:524-529, 1995; • Garrett et al., J. Biol. Chem., 270: 12919-12925, 1995, etc.). Also, the full length cDNA encoding CaSR was obtained first as three divisional parts.]
# These cDNA fragments were adequately connected to an expression vector to obtain a plasmid for expressing a functional human CaSR in animal cells.
# Also, this human CaSR expression plasmid was transfected to CHO cells with a Qα16 expression plasmid α plasmid which is to express a subunit (α16) of G protein], and selected from a medium containing neomycin (G418) to obtain stable expressing cell line.
# The obtained cell line stably expressed CaSR of human and α16 subunit of G protein.
# (2) Measurement of Calcium Concentration in Cells
# By using the CaSR expressing cell line obtained in the above-mentioned (1), change in an intracellular calcium concentration was measured at the time when the cells were stimulated in the presence or in the absence of a test compound as follows.
# First, cells were collected using a cell scraper, suspended in a solution comprising Hepes buffer [10 mM Hepes (7.3), 10 mM glucose, 140 mM NaCl, 5 mM KCl, 2 mM CaCl2, 1 mM MgCl2] to which 0.1% cremophor and 3 μM Fura-2 had been added, and reacted at 37° C. for 1 hour under the conditions wherein a test compound of various concentrations (or conditions not added).
# After being washed, the cells suspended in Hepes buffer were seeded to a plate (about 2×10^5 cells per 1 well of 96-well plate), and fluorescent intensity (Ratio of 340/380 nm) was measured using FDSS (Functional Drug Screening Sysytem; Hamamatsu Photonics K. K.) to examine change in intracellular calcium concentrations.
# CaSR activating effect was confirmed basing on the value (change in an intracellular calcium concentration) measured in the reaction carried out in the presence of the test compound, a CaSR activating ability was confirmed.
# Also, from the measured values (change in an intracellular calcium concentration) of the test compound with various concentrations, a concentration/response curve was drawn to obtain an EC50 value (concentration of agonist giving a half maximal response).
IC50 (rat parathyroid cells) [nM],EC50 (human CaSR) [µM],Compound
5.3,0.42,C[C@@H](N[C@@H]1CCCN(c2ccccn2)C1)c1cccc2ccccc12 [Example 1.077]
< 10,0.42,C[C@@H](N[C@H]1CCN(C(=O)Cc2ccccc2C(F)(F)F)C1)c1cccc2ccccc12 [Example 5.023]
8,0.29,"C[C@@H](N[C@H]1CCN(c2ccc(C(=O)O)cc2)C1)c1cccc2ccccc12 [Example 3.001, 4-[(S)-3-[(R)-1-(naphthalen-1-yl)ethylamino]pyrrolidin-1-yl]benzoic acid hydrochloride]"
0.27,0.018,C[C@@H](N[C@H]1CCN(c2ccc(S(=O)(=O)NCCN(C)C)cc2)C1)c1cccc2ccccc12 [Example 12.020]

Compound,IC50 (rat parathyroid cells) [nM],EC50 (human CaSR) [µM]
(S)-1-(1H-tetrazol-5-yl)pyrrolidin-3-yl-[(R)-1-(naphthalen-1-yl)ethyl]amine hydrochloride [Example 12.028],0.47,0.017
